Laboratory results published in the supplement of paper PMC5908809.

What was measured:
[1] = system: normal NK cells expanded with K562-aAPC; assay: percent inhibition of viability; higher = more inhibition; conditions: 72 h, IL-2 2.5 ng/mL
Experimental: (§1)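 Drug sensitivity and resistance testing on K562-aAPC-expanded normal NK cells: 5 concentrations (10-fold steps over a 10,000-fold range), 72 h at 37 °C, viability by CellTiter-Glo normalised to DMSO and benzethonium chloride controls; DSS from the fitted curve.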

[2] = system: DERL-7 (IL-2 2.5 ng/mL); assay: as above; conditions: 72 h
[3] = system: IMC-1 (IL-2 20 ng/mL); assay: as above; conditions: 72 h
[4] = system: KAI3 (IL-2 2.5 ng/mL); assay: as above; conditions: 72 h
[5] = system: KHYG-1 (IL-2 2.5 ng/mL); assay: as above; conditions: 72 h
[6] = system: NK-92 (IL-2 2.5 ng/mL); assay: as above; conditions: 72 h
[7] = system: NK-YS (IL-2 2.5 ng/mL); assay: as above; conditions: 72 h
[8] = system: NKL (IL-2 2.5 ng/mL); assay: as above; conditions: 72 h
[9] = system: SNK-6 (IL-2 2.5 ng/mL); assay: as above; conditions: 72 h
[10] = system: YT (IL-2 2.5 ng/mL); assay: as above; conditions: 72 h
[11] = system: normal primary NK cells, pool 1 (3 donors) (IL-2 2.5 ng/mL); assay: as above; conditions: 72 h
[12] = system: normal primary NK cells, pool 1 (3 donors), resting (IL-2 0 ng/mL); assay: as above; conditions: 72 h
[13] = system: normal primary NK cells, pool 2 (3 donors) (IL-2 2.5 ng/mL); assay: as above; conditions: 72 h
[14] = system: normal primary NK cells, pool 3 (3 donors) (IL-2 2.5 ng/mL); assay: as above; conditions: 72 h
[15] = system: normal NK cells expanded with K562-aAPC; assay: drug sensitivity score (DSS) (DSS units); higher = more sensitive; extreme values may be limits of the assay; conditions: 72 h; IL-2 2.5 ng/mL
Experimental: as §1

[16] = system: DERL-7 (IL-2 2.5 ng/mL); assay: as above; conditions: 72 h
[17] = system: IMC-1 (IL-2 20 ng/mL); assay: as above; conditions: 72 h
[18] = system: KAI3 (IL-2 2.5 ng/mL); assay: as above; conditions: 72 h
[19] = system: KHYG-1 (IL-2 2.5 ng/mL); assay: as above; conditions: 72 h
[20] = system: NK-92 (IL-2 2.5 ng/mL); assay: as above; conditions: 72 h
[21] = system: NK-YS (IL-2 2.5 ng/mL); assay: as above; conditions: 72 h
[22] = system: NKL (IL-2 2.5 ng/mL); assay: as above; conditions: 72 h
[23] = system: SNK-6 (IL-2 2.5 ng/mL); assay: as above; conditions: 72 h
[24] = system: YT (IL-2 2.5 ng/mL); assay: as above; conditions: 72 h
[25] = system: normal primary NK cells, pool 1 (3 donors) (IL-2 2.5 ng/mL); assay: as above; conditions: 72 h
[26] = system: normal primary NK cells, pool 1 (3 donors), resting (IL-2 0 ng/mL); assay: as above; conditions: 72 h
[27] = system: normal primary NK cells, pool 2 (3 donors) (IL-2 2.5 ng/mL); assay: as above; conditions: 72 h
[28] = system: normal primary NK cells, pool 3 (3 donors) (IL-2 2.5 ng/mL); assay: as above; conditions: 72 h

CNC(=O)c1cccc2cc(Oc3ccnc4cc(OCC5(N)CC5)c(OC)cc34)ccc12 [Lucitanib] (max concentration tested 10000 nM)
percent inhibition of viability [%]
Conditions	1 nM	10 nM	100 nM	1000 nM	10000 nM
[1]	-5.59	-4.77	-3.52	4.7	23.6
[2]	-0.32	-4.66	2.4	-2.57	23.4
[3]	-4.99	1.11	1.41	2.72	0.85
[4]	-0.3	-0.75	-0.45	11.7	49.6
[5]	-3.19	-3.91	-0.83	10.4	70.4
[6]	-12.1	-11.8	3.06	13.7	83.8
[7]	-6.67	-4.7	-0.96	9.75	65.5
[8]	1.05	4.31	4.24	-3.6	3.06
[9]	-7.37	-13.2	-13.8	-8.69	69.6
[10]	-5.87	-7.33	-6.32	-2.96	58.7
[11]	-6.86	10.5	-2.99	8.01	5.53
[12]	-16.7	4.29	3.09	0.61	22.1
[13]	-3.78	2.2	2.46	-3.23	-5
[14]	-7.6	0.39	3.76	-6.23	-5.45

Conditions	drug sensitivity score
[15]	1.53
[16]	0.68
[17]	0
[18]	4.47
[19]	5.63
[20]	6.93
[21]	5.23
[22]	0
[23]	3.25
[24]	2.92
[25]	0
[26]	0.81
[27]	0
[28]	0

O=C1NC(=O)/C(=C/c2ccc3nccc(-c4ccncc4)c3c2)S1 (max concentration tested 10000 nM)
percent inhibition of viability [%]
Conditions	1 nM	10 nM	100 nM	1000 nM	10000 nM
[1]	-7.65	-6.22	-2.48	25.2	68.2
[2]	-4.4	4.35	9.03	60.2	88.2
[3]	-1.41	-1.05	0.35	-13.3	36.1
[4]	4.6	-4.46	10.8	33.3	66
[5]	-3.03	-2.9	7.97	47.8	78.5
[6]	-4.72	-6.37	-0.26	24.6	63.5
[7]	-5.37	-5.14	5.36	42.1	74.2
[8]	-16.6	-12.9	3.48	52.1	76.4
[9]	7.06	2.93	5.43	30.6	67.5
[10]	-1.99	-2.62	7.22	58.7	82.4
[11]	-6.7	13.9	10.7	28.1	58.9
[12]	7.14	23.7	24.7	33.3	68.1
[13]	-5.69	2.64	12.6	32.4	82.4
[14]	-4.27	3.99	9.93	15.9	69.4

Conditions	drug sensitivity score
[15]	7.25
[16]	12.7
[17]	1.19
[18]	7.69
[19]	10.3
[20]	6.85
[21]	9.16
[22]	10.6
[23]	7.19
[24]	12.1
[25]	6.93
[26]	14.1
[27]	8.23
[28]	6.25
